In patent publication US8828456B2, “Method of external skin application of composition containing red pine root extract” (Amorepacific Corporation, priority 2009, dated 2014):

Assay: Free radical removal activity (DPPH method)
Format: biochemical
Description: Specifically, each of the extracts obtained in Example 1 and Comparative Example 1 was diluted in ethanol to varying concentrations (0, 50, 100, 200, 300 and 400 μg/mL), and 10 μl of each dilution was added to each well of a 96-well plate. A solution of 5 mM DPPH in ethanol was added to each well to a total volume of 200 μl. The resulting solution was incubated at 37° C. for 30 minutes, and then measured at 520 nm using an ELISA reader (DI Biotech, Korea). Based on the measured absorbance, free radical removal activity was calculated according to the following Equation 1. As a positive control, vitamin C known to have excellent antioxidant activity was used. Radical removal activity (%)=absorbance of control-absorbance of sample/absorbance of control×100 Equation 1

O=C1O[C@H]([C@@H](O)CO)C(O)=C1O [Vitamin C, vitamin C]
Radical Removal Activity (%) (50 μg/mL): 30% | Radical Removal Activity (%) (100 μg/mL): 90% | Radical Removal Activity (%) (200 μg/mL): 91% | Radical Removal Activity (%) (300 μg/mL): 90% | Radical Removal Activity (%) (400 μg/mL): 90%
